In brackets after ≈: the same amount, converted by molar mass.
Experiments:
Assay type in all cases: cell-based
[1] = test system: Pseudomonas aeruginosa 104; assay: Minimum Inhibitory Concentration, Pseudomonas aeruginosa 104; conditions: Pseudomonas aeruginosa 104; read-out: Minimum Inhibitory Concentration
Experimental: (§1) anti-microbial activity tests were carried out on the compounds obtained in the Examples.

Escherichia coli NIHJ = assay: Minimum Inhibitory Concentration, Escherichia coli NIHJ; conditions: Escherichia coli NIHJ; read-out: Minimum Inhibitory Concentration
Experimental: as §1

[2] = test system: Staphylococcus aureus 209 P; assay: Minimum Inhibitory Concentration, Staphylococcus aureus 209 P; conditions: Staphylococcus aureus 209 P; read-out: Minimum Inhibitory Concentration
Experimental: as §1

[3] = test system: Klebsiella pneumoniae 602; assay: Minimum Inhibitory Concentration, Klebsiella pneumoniae 602; conditions: Klebsiella pneumoniae, 602, Klebsiella pneumoniae 602; read-out: Minimum Inhibitory Concentration
Experimental: as §1

Proteus vulgaris HX 19 = assay: Minimum Inhibitory Concentration, Proteus vulgaris HX 19; conditions: HX19; Proteus vulgaris HX 19; read-out: Minimum Inhibitory Concentration
Experimental: as §1

[4] = test system: Enterobacter aerogeneus No. 75; assay: Minimum Inhibitory Concentration, Enterobacter aerogeneus No. 75; conditions: Enterobacter aerogeneus No. 75; read-out: Minimum Inhibitory Concentration
Experimental: as §1

Serratia No. 72 = assay: Minimum Inhibitory Concentration, Serratia No. 72
Experimental: as §1

[5] = test system: Staphylococcus aureus FS 289; assay: Minimum Inhibitory Concentration, Staphylococcus aureus FS 289; conditions: FS289; Staphylococcus aureus FS 289, strain resistant to penicillin; read-out: Minimum Inhibitory Concentration
Experimental: as §1
*Staphylococcus aureus FS 289: strain resistant to penicillin

Structure (SMILES)	MIC [1] [µg/mL]	MIC (Escherichia coli NIHJ) [µg/mL]	MIC [2] [µg/mL]	MIC [3] [µg/mL]	MIC (Proteus vulgaris HX 19) [µg/mL]	MIC [4] [µg/mL]	MIC (Serratia No. 72) [µg/mL]	MIC [5] [µg/mL]
Cn1nnnc1SCC1=C(C(=O)O)N2C(=O)C(NC(=O)C(NC(=O)c3cnc4sccc4c3O)c3ccc(O)cc3)C2SC1 (centres unmarked) [Example 159]	6.25 (≈ 9.55 µM)	6.25 (≈ 9.55 µM)	0.39 (≈ 0.596 µM)	3.13 (≈ 4.78 µM)	0.78 (≈ 1.19 µM)	12.5 (≈ 19.1 µM)	50 (≈ 76.4 µM)	12.5 (≈ 19.1 µM)
O=C(O)C1=C(CSc2nnc(CO)s2)CSC2C(NC(=O)C(NC(=O)c3cnccc3O)c3ccc(O)cc3)C(=O)N12 (centres unmarked) [Example 176]	12.5 (≈ 19.8 µM)	6.25 (≈ 9.91 µM)	0.39 (≈ 0.618 µM)	6.25 (≈ 9.91 µM)	0.2 (≈ 0.317 µM)	12.5 (≈ 19.8 µM)	50 (≈ 79.3 µM)	6.25 (≈ 9.91 µM)
CSc1cnc2c(O)c(C(=O)NC(C(=O)NC3C(=O)N4C(C(=O)O)=C(CSc5nnnn5C)CSC34)c3cccc(N)c3)cnc2n1 (centres unmarked) [Example 70]	6.25 (≈ 8.98 µM)	3.13 (≈ 4.5 µM)	1.56 (≈ 2.24 µM)	3.13 (≈ 4.5 µM)	0.1 (≈ 0.144 µM)	6.25 (≈ 8.98 µM)	12.5 (≈ 18 µM)	6.25 (≈ 8.98 µM)
Cn1nnnc1SCC1=C(C(=O)O)N2C(=O)C(NC(=O)C(NC(=O)c3cnccc3O)c3ccc(O)c(O)c3)C2SC1 (centres unmarked) [Example 185]	6.25 (≈ 10.2 µM)	6.25 (≈ 10.2 µM)	0.78 (≈ 1.27 µM)	6.25 (≈ 10.2 µM)	0.39 (≈ 0.635 µM)	12.5 (≈ 20.3 µM)	50 (≈ 81.4 µM)	6.25 (≈ 10.2 µM)
Cc1nc2ncc(C(=O)NC(C(=O)NC3C(=O)N4C(C(=O)O)=C(CSc5nnnn5C)CSC34)c3ccc(CO)cc3)c(O)c2nc1C (centres unmarked) [Example 105]	6.25 (≈ 9.02 µM)	6.25 (≈ 9.02 µM)	0.78 (≈ 1.13 µM)	3.13 (≈ 4.52 µM)	0.2 (≈ 0.289 µM)	12.5 (≈ 18 µM)	12.5 (≈ 18 µM)	6.25 (≈ 9.02 µM)
Cn1nnnc1SCC1=C(C(=O)O)N2C(=O)C(NC(=O)C(NC(=O)c3cnccc3O)c3ccc(O)c(F)c3)C2SC1 (centres unmarked) [Example 187]	6.25 (≈ 10.1 µM)	6.25 (≈ 10.1 µM)	0.78 (≈ 1.26 µM)	12.5 (≈ 20.3 µM)	0.39 (≈ 0.632 µM)	12.5 (≈ 20.3 µM)	50 (≈ 81.1 µM)	6.25 (≈ 10.1 µM)

Results, then the compound that gave them:

MIC [1] [µg/mL]	MIC (Escherichia coli NIHJ) [µg/mL]	MIC [2] [µg/mL]	MIC [3] [µg/mL]	MIC (Proteus vulgaris HX 19) [µg/mL]	MIC [4] [µg/mL]	MIC (Serratia No. 72) [µg/mL]	MIC [5] [µg/mL]	Structure (SMILES)
3.13 (≈ 4.82 µM)	3.13 (≈ 4.82 µM)	0.78 (≈ 1.2 µM)	1.56 (≈ 2.4 µM)	0.1 (≈ 0.154 µM)	3.13 (≈ 4.82 µM)	12.5 (≈ 19.2 µM)	6.25 (≈ 9.62 µM)	Cn1nnnc1SCC1=C(C(=O)O)N2C(=O)C(NC(=O)C(NC(=O)c3cnc4cccnc4c3O)c3cccc(O)c3)C2SC1 (centres unmarked) [Example 180]
6.25 (≈ 9.66 µM)	6.25 (≈ 9.66 µM)	0.78 (≈ 1.21 µM)	12.5 (≈ 19.3 µM)	0.78 (≈ 1.21 µM)	12.5 (≈ 19.3 µM)	50 (≈ 77.3 µM)	6.25 (≈ 9.66 µM)	O=C(O)C1=C(CSc2nnc(CO)s2)CSC2C(NC(=O)C(NC(=O)c3cnccc3O)c3ccc(O)c(O)c3)C(=O)N12 (centres unmarked) [Example 184]
3.13 (≈ 4.53 µM)	1.56 (≈ 2.26 µM)	0.78 (≈ 1.13 µM)	1.56 (≈ 2.26 µM)	0.1 (≈ 0.145 µM)	3.13 (≈ 4.53 µM)	12.5 (≈ 18.1 µM)	6.25 (≈ 9.04 µM)	Cn1nnnc1SCC1=C(C(=O)O)N2C(=O)[C@@H](NC(=O)[C@H](NC(=O)c3cnc4cccnc4c3O)c3cccc(NC(N)=O)c3)[C@H]2SC1 [Example 38]
3.13 (≈ 4.93 µM)	3.13 (≈ 4.93 µM)	0.78 (≈ 1.23 µM)	1.56 (≈ 2.46 µM)	0.1 (≈ 0.158 µM)	3.13 (≈ 4.93 µM)	25 (≈ 39.4 µM)	3.13 (≈ 4.93 µM)	O=C(O)C1=C(CSc2cnn[nH]2)CSC2C(NC(=O)[C@H](NC(=O)c3cnc4cccnc4c3O)c3ccc(O)cc3)C(=O)N12 (some centres unmarked) [Example 134]
3.13 (≈ 4.59 µM)	1.56 (≈ 2.29 µM)	0.78 (≈ 1.14 µM)	1.56 (≈ 2.29 µM)	0.2 (≈ 0.293 µM)	6.25 (≈ 9.17 µM)	12.5 (≈ 18.3 µM)	6.25 (≈ 9.17 µM)	O=C(O)C1=C(CSc2nnc(CO)s2)CSC2C(NC(=O)C(NC(=O)c3cnc4cccnc4c3O)c3cccc(O)c3)C(=O)N12 (centres unmarked) [Example 181]
3.13 (≈ 4.73 µM)	6.25 (≈ 9.45 µM)	0.78 (≈ 1.18 µM)	1.56 (≈ 2.36 µM)	0.1 (≈ 0.151 µM)	6.25 (≈ 9.45 µM)	25 (≈ 37.8 µM)	6.25 (≈ 9.45 µM)	O=C(O)C1=C(CSc2ccc(O)nn2)CSC2C(NC(=O)C(NC(=O)c3cnc4cccnc4c3O)c3ccc(O)cc3)C(=O)N12 (centres unmarked) [Example 170]
3.13 (≈ 4.45 µM)	1.56 (≈ 2.22 µM)	0.78 (≈ 1.11 µM)	1.56 (≈ 2.22 µM)	0.2 (≈ 0.284 µM)	6.25 (≈ 8.88 µM)	12.5 (≈ 17.8 µM)	6.25 (≈ 8.88 µM)	NC(=O)Nc1cccc([C@@H](NC(=O)c2cnc3cccnc3c2O)C(=O)N[C@@H]2C(=O)N3C(C(=O)O)=C(CSc4ccc(O)nn4)CS[C@H]23)c1 [Example 37]

Reference: patent US4156724A, “N-acylamino-alpha-arylacetamido cephalosporins and antibacterial compositions and methods containing them” (Sumitomo Chemical Company, Limited, priority 1974, dated 1979)
